Measurements: ChEMBL document CHEMBL4507272 (2021)

Tests used:
[1] = molecular target: Activin receptor type-1-like (Homo sapiens) (UniProt P37023); conditions: Compound concentration 1000.0 nM
[2] = molecular target: RAC-alpha serine/threonine-protein kinase (Homo sapiens) (UniProt P31749); conditions: Compound concentration 1000.0 nM
[3] = molecular target: Cytoplasmic tyrosine-protein kinase BMX (Homo sapiens) (UniProt P51813); conditions: Compound concentration 1000.0 nM
[4] = molecular target: Calcium/calmodulin-dependent protein kinase type 1B (Homo sapiens) (UniProt Q6P2M8); conditions: Compound concentration 1000.0 nM
[5] = molecular target: Cyclin-dependent kinase 5 (Homo sapiens) (UniProt Q00535); conditions: Compound concentration 1000.0 nM
[6] = molecular target: Cyclin-dependent kinase-like 1 (Homo sapiens) (UniProt Q00532); conditions: Compound concentration 1000.0 nM
[7] = molecular target: Dual specificity tyrosine-phosphorylation-regulated kinase 2 (Homo sapiens) (UniProt Q92630); conditions: Compound concentration 1000.0 nM
Dual specificity tyrosine-phosphorylation-regulated kinase 2 (Homo sapiens), sequence (Q92630 whole entry): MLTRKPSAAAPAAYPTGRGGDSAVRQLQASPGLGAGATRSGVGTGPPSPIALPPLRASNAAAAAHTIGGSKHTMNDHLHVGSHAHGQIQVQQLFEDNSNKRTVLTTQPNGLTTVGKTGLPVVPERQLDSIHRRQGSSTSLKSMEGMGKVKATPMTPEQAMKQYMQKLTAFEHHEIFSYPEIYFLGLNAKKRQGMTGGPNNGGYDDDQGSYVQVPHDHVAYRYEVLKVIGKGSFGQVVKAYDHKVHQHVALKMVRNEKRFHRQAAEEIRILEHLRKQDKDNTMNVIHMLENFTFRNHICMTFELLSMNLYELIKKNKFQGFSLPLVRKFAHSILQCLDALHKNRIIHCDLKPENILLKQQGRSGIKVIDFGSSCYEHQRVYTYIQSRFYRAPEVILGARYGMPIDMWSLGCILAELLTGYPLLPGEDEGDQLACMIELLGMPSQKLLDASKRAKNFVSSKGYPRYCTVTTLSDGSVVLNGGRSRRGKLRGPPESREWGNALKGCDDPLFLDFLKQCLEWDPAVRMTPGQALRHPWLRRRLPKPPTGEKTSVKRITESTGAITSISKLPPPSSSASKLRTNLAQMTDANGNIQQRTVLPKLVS

[8] = molecular target: Ephrin type-A receptor 3 (Homo sapiens) (UniProt P29320); conditions: Compound concentration 1000.0 nM
[9] = molecular target: Ephrin type-A receptor 6 (Homo sapiens) (UniProt Q9UF33); conditions: Compound concentration 1000.0 nM
[10] = molecular target: Mitogen-activated protein kinase 1 (Homo sapiens) (UniProt P28482); conditions: Compound concentration 1000.0 nM
[11] = molecular target: Fibroblast growth factor receptor 2 (Homo sapiens) (UniProt P21802); conditions: Compound concentration 1000.0 nM
[12] = molecular target: Homeodomain-interacting protein kinase 2 (Homo sapiens) (UniProt Q9H2X6); conditions: Compound concentration 1000.0 nM
[13] = molecular target: Mitogen-activated protein kinase kinase kinase kinase 1 (Homo sapiens) (UniProt Q92918); conditions: Compound concentration 1000.0 nM
[14] = molecular target: Tyrosine-protein kinase Lck (Homo sapiens) (UniProt P06239); conditions: Compound concentration 1000.0 nM
[15] = molecular target: Serine/threonine-protein kinase MAK (Homo sapiens) (UniProt P20794); conditions: Compound concentration 1000.0 nM
[16] = molecular target: Mitogen-activated protein kinase kinase kinase kinase 5 (Homo sapiens) (UniProt Q9Y4K4); conditions: Compound concentration 1000.0 nM
Mitogen-activated protein kinase kinase kinase kinase 5 (Homo sapiens), sequence (Q9Y4K4 whole entry, looked up): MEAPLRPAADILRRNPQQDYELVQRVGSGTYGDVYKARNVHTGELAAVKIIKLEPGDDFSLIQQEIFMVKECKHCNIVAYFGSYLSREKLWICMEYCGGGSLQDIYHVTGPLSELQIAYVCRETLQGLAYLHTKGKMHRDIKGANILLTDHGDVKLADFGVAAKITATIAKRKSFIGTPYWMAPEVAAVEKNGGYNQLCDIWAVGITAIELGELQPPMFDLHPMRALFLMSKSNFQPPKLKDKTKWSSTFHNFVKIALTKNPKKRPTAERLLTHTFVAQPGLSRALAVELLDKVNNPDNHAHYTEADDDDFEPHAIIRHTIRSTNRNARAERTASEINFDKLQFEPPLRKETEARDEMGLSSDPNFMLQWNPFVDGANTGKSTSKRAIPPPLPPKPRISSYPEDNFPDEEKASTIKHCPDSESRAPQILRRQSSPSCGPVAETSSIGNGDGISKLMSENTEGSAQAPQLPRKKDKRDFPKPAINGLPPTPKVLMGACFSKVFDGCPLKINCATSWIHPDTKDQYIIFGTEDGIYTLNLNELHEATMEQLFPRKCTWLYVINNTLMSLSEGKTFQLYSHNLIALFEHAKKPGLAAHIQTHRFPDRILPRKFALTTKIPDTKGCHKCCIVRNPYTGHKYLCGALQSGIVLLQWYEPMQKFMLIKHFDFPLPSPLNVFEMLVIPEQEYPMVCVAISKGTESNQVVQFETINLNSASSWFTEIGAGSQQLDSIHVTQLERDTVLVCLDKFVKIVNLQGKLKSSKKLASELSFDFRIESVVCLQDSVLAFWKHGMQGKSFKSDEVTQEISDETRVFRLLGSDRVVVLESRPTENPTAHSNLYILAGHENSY

[17] = molecular target: MAP kinase-activated protein kinase 2 (Homo sapiens) (UniProt P49137); conditions: Compound concentration 1000.0 nM
[18] = molecular target: MAP kinase-activated protein kinase 5 (Homo sapiens) (UniProt Q8IW41); conditions: Compound concentration 1000.0 nM
[19] = molecular target: MAP/microtubule affinity-regulating kinase 3 (Homo sapiens) (UniProt P27448); conditions: Compound concentration 1000.0 nM
[20] = molecular target: Dual specificity mitogen-activated protein kinase kinase 3 (Homo sapiens) (UniProt P46734); conditions: Compound concentration 1000.0 nM
[21] = molecular target: Myosin light chain kinase (Homo sapiens) (UniProt Q32MK0); conditions: Compound concentration 1000.0 nM
[22] = molecular target: Mitogen-activated protein kinase kinase kinase 9 (Homo sapiens) (UniProt P80192); conditions: Compound concentration 1000.0 nM
[23] = molecular target: Serine/threonine-protein kinase 38-like (Homo sapiens) (UniProt Q9Y2H1); conditions: Compound concentration 1000.0 nM
[24] = molecular target: Serine/threonine-protein kinase Nek2 (Homo sapiens) (UniProt P51955); conditions: Compound concentration 1000.0 nM
[25] = molecular target: Serine/threonine-protein kinase PAK 1 (Homo sapiens) (UniProt Q13153); conditions: Compound concentration 1000.0 nM
[26] = molecular target: Serine/threonine-protein kinase PAK 2 (Homo sapiens) (UniProt Q13177); conditions: Compound concentration 1000.0 nM
[27] = molecular target: Platelet-derived growth factor receptor alpha (Homo sapiens) (UniProt P16234); conditions: Compound concentration 1000.0 nM
[28] = molecular target: cAMP-dependent protein kinase catalytic subunit beta (Homo sapiens) (UniProt P22694); conditions: Compound concentration 1000.0 nM
[29] = molecular target: Serine/threonine-protein kinase N2 (Homo sapiens) (UniProt Q16513); conditions: Compound concentration 1000.0 nM
[30] = molecular target: Protein kinase C eta type (Homo sapiens) (UniProt P24723); conditions: Compound concentration 1000.0 nM
[31] = molecular target: Serine/threonine-protein kinase D3 (Homo sapiens) (UniProt O94806); conditions: Compound concentration 1000.0 nM
[32] = molecular target: Protein-tyrosine kinase 2-beta (Homo sapiens) (UniProt Q14289); conditions: Compound concentration 1000.0 nM
[33] = molecular target: Rho-associated protein kinase 1 (Homo sapiens) (UniProt Q13464); conditions: Compound concentration 1000.0 nM
Rho-associated protein kinase 1 (Homo sapiens), sequence (Q13464 2-1354 limits assumed): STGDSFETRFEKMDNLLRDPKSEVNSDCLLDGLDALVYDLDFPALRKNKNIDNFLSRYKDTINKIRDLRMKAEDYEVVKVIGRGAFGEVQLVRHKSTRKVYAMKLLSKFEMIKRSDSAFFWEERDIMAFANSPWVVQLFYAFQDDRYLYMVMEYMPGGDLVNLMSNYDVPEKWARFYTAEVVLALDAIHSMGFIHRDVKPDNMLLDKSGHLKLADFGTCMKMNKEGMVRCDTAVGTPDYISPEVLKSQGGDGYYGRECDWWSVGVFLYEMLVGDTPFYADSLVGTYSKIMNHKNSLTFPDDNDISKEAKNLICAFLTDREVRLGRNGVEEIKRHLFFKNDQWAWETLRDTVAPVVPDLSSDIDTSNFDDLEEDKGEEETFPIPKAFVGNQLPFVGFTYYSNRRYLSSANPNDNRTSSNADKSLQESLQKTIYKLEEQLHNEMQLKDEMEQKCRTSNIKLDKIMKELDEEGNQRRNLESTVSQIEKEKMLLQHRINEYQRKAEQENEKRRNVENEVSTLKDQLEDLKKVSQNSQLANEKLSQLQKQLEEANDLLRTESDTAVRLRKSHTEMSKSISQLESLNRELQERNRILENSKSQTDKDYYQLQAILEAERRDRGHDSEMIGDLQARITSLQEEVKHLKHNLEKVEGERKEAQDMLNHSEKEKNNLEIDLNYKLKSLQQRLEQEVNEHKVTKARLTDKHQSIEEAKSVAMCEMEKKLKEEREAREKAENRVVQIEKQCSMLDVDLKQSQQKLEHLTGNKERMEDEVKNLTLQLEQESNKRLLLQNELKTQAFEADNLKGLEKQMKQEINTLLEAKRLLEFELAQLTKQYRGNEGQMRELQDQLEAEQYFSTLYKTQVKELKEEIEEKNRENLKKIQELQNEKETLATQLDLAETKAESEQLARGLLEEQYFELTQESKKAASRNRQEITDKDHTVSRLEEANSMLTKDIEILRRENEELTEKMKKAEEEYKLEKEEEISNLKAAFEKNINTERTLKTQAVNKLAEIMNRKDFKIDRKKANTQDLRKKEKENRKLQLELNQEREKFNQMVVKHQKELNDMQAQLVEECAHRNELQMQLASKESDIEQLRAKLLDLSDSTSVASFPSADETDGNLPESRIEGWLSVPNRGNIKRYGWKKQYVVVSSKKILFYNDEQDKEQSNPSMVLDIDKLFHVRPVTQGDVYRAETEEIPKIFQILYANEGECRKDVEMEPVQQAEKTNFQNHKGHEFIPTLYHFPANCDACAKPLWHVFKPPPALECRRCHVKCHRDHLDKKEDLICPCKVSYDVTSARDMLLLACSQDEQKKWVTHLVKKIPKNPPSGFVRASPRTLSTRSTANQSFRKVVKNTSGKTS

[34] = molecular target: Ribosomal protein S6 kinase alpha-2 (Homo sapiens) (UniProt Q15349); conditions: Compound concentration 1000.0 nM
[35] = molecular target: Ribosomal protein S6 kinase beta-1 (Homo sapiens) (UniProt P23443); conditions: Compound concentration 1000.0 nM
[36] = molecular target: Serine/threonine-protein kinase SIK1 (Homo sapiens) (UniProt P57059); conditions: Compound concentration 1000.0 nM
[37] = molecular target: Serine/threonine-protein kinase 36 (Homo sapiens) (UniProt Q9NRP7); conditions: Compound concentration 1000.0 nM
Serine/threonine-protein kinase 36 (Homo sapiens), sequence (Q9NRP7 whole entry): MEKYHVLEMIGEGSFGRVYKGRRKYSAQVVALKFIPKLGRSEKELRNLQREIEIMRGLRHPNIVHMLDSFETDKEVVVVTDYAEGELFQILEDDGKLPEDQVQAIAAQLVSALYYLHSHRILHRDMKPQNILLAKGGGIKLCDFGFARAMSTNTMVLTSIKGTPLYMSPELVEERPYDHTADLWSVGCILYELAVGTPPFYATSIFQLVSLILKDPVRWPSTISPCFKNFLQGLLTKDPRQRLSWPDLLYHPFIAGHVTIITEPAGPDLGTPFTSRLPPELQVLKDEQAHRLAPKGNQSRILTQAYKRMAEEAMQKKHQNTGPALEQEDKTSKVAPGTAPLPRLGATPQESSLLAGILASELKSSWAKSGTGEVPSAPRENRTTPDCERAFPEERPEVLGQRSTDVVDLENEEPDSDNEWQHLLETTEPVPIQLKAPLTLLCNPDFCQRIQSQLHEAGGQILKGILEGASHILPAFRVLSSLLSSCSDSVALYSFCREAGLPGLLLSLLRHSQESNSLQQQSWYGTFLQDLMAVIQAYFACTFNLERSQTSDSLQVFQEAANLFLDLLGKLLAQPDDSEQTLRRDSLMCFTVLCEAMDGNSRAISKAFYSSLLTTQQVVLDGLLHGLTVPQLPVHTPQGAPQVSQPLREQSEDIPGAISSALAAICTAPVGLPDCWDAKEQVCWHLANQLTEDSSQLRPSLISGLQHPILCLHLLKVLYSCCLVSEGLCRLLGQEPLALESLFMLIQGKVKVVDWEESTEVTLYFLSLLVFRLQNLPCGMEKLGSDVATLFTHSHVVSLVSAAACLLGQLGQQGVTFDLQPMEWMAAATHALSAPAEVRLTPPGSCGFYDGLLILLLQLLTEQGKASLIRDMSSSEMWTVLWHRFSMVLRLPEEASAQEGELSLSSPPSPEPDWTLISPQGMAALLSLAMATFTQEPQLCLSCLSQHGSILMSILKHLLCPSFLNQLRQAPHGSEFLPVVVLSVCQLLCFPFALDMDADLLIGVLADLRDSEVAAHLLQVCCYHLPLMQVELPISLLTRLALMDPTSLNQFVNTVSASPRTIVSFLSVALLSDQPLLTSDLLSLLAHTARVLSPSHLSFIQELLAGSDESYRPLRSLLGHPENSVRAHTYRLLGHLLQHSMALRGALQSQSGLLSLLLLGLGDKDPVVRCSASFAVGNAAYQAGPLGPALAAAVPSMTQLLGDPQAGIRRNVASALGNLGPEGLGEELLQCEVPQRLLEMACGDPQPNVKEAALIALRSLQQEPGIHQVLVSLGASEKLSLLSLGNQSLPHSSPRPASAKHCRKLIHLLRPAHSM

[38] = molecular target: TGF-beta receptor type-1 (Homo sapiens) (UniProt P36897); conditions: Compound concentration 1000.0 nM
[39] = molecular target: Activated CDC42 kinase 1 (Homo sapiens) (UniProt Q07912); conditions: Compound concentration 1000.0 nM
[40] = molecular target: Non-receptor tyrosine-protein kinase TYK2 (Homo sapiens) (UniProt P29597); conditions: Compound concentration 1000.0 nM
[41] = molecular target: Mitogen-activated protein kinase kinase kinase 19 (Homo sapiens) (UniProt Q56UN5); conditions: Compound concentration 1000.0 nM
[42] = molecular target: Mitogen-activated protein kinase kinase kinase 20 (Homo sapiens) (UniProt Q9NYL2); conditions: Compound concentration 1000.0 nM
Mitogen-activated protein kinase kinase kinase 20 (Homo sapiens), sequence (Q9NYL2 2-800 limits assumed): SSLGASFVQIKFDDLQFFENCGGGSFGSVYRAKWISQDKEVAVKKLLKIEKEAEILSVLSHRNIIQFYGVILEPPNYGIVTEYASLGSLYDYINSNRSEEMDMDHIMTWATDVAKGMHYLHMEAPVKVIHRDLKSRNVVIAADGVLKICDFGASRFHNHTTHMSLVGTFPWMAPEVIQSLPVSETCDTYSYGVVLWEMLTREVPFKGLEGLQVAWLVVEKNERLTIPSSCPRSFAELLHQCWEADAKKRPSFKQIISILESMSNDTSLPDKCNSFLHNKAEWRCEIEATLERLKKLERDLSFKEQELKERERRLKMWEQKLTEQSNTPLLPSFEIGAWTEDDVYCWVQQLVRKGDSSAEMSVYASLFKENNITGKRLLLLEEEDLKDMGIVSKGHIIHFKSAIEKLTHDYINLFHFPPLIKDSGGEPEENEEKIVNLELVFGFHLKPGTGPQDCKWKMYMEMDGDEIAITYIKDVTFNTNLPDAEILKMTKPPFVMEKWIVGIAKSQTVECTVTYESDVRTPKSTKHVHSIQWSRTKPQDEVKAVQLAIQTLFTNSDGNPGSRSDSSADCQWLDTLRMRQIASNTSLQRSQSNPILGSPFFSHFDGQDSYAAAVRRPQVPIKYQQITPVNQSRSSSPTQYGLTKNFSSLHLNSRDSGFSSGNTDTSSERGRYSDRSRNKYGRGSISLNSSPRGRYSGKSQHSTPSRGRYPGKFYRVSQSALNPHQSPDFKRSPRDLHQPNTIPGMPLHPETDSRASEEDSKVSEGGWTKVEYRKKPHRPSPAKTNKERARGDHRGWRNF

[43] = molecular target: 5-hydroxytryptamine receptor 2A (Homo sapiens) (UniProt P28223); conditions: Compound concentration 10.0 uM
[44] = molecular target: D(4) dopamine receptor (Homo sapiens) (UniProt P21917); conditions: Compound concentration 10.0 uM
[45] = molecular target: Delta-type opioid receptor (Homo sapiens) (UniProt P41143); conditions: Compound concentration 10.0 uM
[46] = molecular target: Muscarinic acetylcholine receptor M1 (Homo sapiens) (UniProt P11229); conditions: Compound concentration 10.0 uM

Which residual activity [1] does the source give for `CC(=O)C1=C(C)N(c2cccc(C(F)(F)F)c2)C(=O)N[C@@H]1c1ccc(C#N)nc1` [BAY-678] here?
The residual activity was 71.7%.

And the residual activity [2]?
Its residual activity is 90.4%.

What about the residual activity [3] of the same molecule?
Its residual activity is 97.4%.

What about the residual activity [4] of the same molecule?
The residual activity was 92.4%.

And the residual activity [5]?
The residual activity was 100%.

What about the residual activity [6] of the same molecule?
The residual activity was 80.9%.

What about the residual activity [7] of the same molecule?
Its residual activity is 100%.

What about the residual activity [8] of the same molecule?
Its residual activity is 100%.

What about the residual activity [9] of the same molecule?
Its residual activity is 94.5%.

And the residual activity [10]?
The residual activity was 98.9%.

What about the residual activity [11] of the same molecule?
The residual activity was 100%.

What about the residual activity [12] of the same molecule?
The residual activity was 94.3%.

And the residual activity [13]?
Its residual activity is 100%.

And the residual activity [14]?
Its residual activity is 100%.

And the residual activity [15]?
The residual activity was 82.5%.

And the residual activity [16]?
Its residual activity is 100%.

And the residual activity [17]?
The residual activity was 82.6%.

What about the residual activity [18] of the same molecule?
Its residual activity is 100%.

And the residual activity [19]?
Its residual activity is 100%.

And the residual activity [20]?
Its residual activity is 95.2%.

What about the residual activity [21] of the same molecule?
Its residual activity is 100%.

And the residual activity [22]?
Its residual activity is 94%.

And the residual activity [23]?
The residual activity was 93.6%.

What about the residual activity [24] of the same molecule?
Its residual activity is 100%.

What about the residual activity [25] of the same molecule?
Its residual activity is 91.2%.

And the residual activity [26]?
Its residual activity is 98.2%.

What about the residual activity [27] of the same molecule?
Its residual activity is 100%.

And the residual activity [28]?
Its residual activity is 48.7%.

And the residual activity [29]?
The residual activity was 96.3%.

And the residual activity [30]?
The residual activity was 91.3%.

And the residual activity [31]?
The residual activity was 78%.

What about the residual activity [32] of the same molecule?
Its residual activity is 100%.

What about the residual activity [33] of the same molecule?
The residual activity was 100%.

What about the residual activity [34] of the same molecule?
The residual activity was 72.8%.

What about the residual activity [35] of the same molecule?
The residual activity was 93.8%.

And the residual activity [36]?
The residual activity was 100%.

What about the residual activity [37] of the same molecule?
Its residual activity is 100%.

And the residual activity [38]?
Its residual activity is 99.2%.

And the residual activity [39]?
Its residual activity is 78.6%.

And the residual activity [40]?
Its residual activity is 94.9%.

And the residual activity [41]?
The residual activity was 93%.

And the residual activity [42]?
The residual activity was 96.9%.

And the inhibition [43]?
The inhibition was -0.427%.

What about the inhibition [44] of the same molecule?
Its inhibition is 15.9%.

What about the inhibition [45] of the same molecule?
The inhibition was -6.02%.

And the inhibition [46]?
Its inhibition is -4.65%.
